Test results from ChEMBL document CHEMBL6153037, “Developing dual-responsive quinolinium prodrugs of 8-hydroxyquinoline by harnessing the dual chelating sites” (Eur J Med Chem, 2025).
pIC50: −log10 of the molar value. ≈ marks a conversion by molar mass, not a printed value. Calls of active or inactive are those of the source. The rule behind the calls is not given here.

Legend:
[1] = tested on: MDA-MB-231; assay: Antitumor activity against human MDA-MB-231 cells assessed as sphere-forming efficiency incubated for 6 hrs followed by medium replacement without compound measured after 6 days by microscopic analysis (reference value: 1.07 %); assay type: functional
[2] = tested on: MCF-10A; assay: Induction of apoptosis in human MCF-10A cells assessed as necrotic cells incubated for 24 hrs by Annexin V-FITC/PI staining based flow cytometry (reference value: 0.17 %); assay type: toxicity, cell-based
[3] = Toxicity in BALB/c nude mouse xenografted with human MDA-MB-231 cells assessed as body weight change at 20 mg/kg, iv administered every two days for 21 days; assay type: organism-based; settings: in vivo, 504 h, time 21 day
[4] = tested on: MCF-10A; assay: Induction of apoptosis in human MCF-10A cells assessed as early apoptotic cells incubated for 24 hrs by Annexin V-FITC/PI staining based flow cytometry (reference value: 1.66 %); assay type: toxicity, cell-based
[5] = tested on: MDA-MB-231; assay: Induction of apoptosis in human MDA-MB-231 cells assessed as late apoptotic cells incubated for 24 hrs by Annexin V-FITC/PI staining based flow cytometry (reference value: 0.17 %); assay type: functional
[6] = tested on: MCF-10A; assay: Induction of apoptosis in human MCF-10A cells assessed as late apoptotic cells incubated for 24 hrs by Annexin V-FITC/PI staining based flow cytometry (reference value: 2.16 %); assay type: toxicity, cell-based
[7] = tested on: MDA-MB-231; assay: Cytotoxicity against human MDA-MB-231 cells incubated for 24 to 48 hrs by MTT assay; assay type: functional, cell-based; settings: time 24-48 hrs
[8] = Lipophilicity, logP of compound; assay type: physicochemical; settings: octanol/water
[9] = Solubility of compound in PBS buffer at pH 7.4; assay type: physicochemical
[10] = Solubility of compound in double distilled H2O; assay type: physicochemical; settings: double distilled water
[11] = Selectivity index, ratio of inhibition of DNA synthesis in human MCF-10A cells to inhibition of DNA synthesis in human MDA-MB-231 cells; assay type: toxicity, cell-based; settings: MCF-10A cells and MDA-MB-231 cells
[12] = tested on: MDA-MB-231; assay: Effect on phlorizin-induced cytotoxicity against human MDA-MB-231 cells incubated for 12 hrs by MTT assay; assay type: functional, cell-based
[13] = tested on: MDA-MB-231; assay: Cytotoxicity against human MDA-MB-231 cells assessed as inhibition of cell viability incubated for 48 hrs by MTT assay; assay type: functional, cell-based; settings: MDA-MB-231, 48 h
[14] = tested on: MDA-MB-231; assay: Induction of apoptosis in human MDA-MB-231 cells assessed as viable cells incubated for 24 hrs by Annexin V-FITC/PI staining based flow cytometry (reference value: 99.5 %); assay type: functional
[15] = Lipophilicity, logD of compound at pH 7.4; assay type: physicochemical; settings: buffer
[16] = tested on: MDA-MB-231; assay: Induction of apoptosis in human MDA-MB-231 cells assessed as necrotic cells incubated for 24 hrs by Annexin V-FITC/PI staining based flow cytometry (reference value: 0.065 %); assay type: functional
[17] = Cytotoxicity against human MCF-10A cells assessed as inhibition of cell viability incubated for 48 hrs by MTT assay; assay type: toxicity, cell-based
[18] = Induction of apoptosis in human MCF-10A cells assessed as viable cells incubated for 24 hrs by Annexin V-FITC/PI staining based flow cytometry (reference value: 96.0 %); assay type: toxicity, cell-based; settings: read-out: Activity
[19] = tested on: MDA-MB-231; assay: Induction of apoptosis in human MDA-MB-231 cells assessed as early apoptotic cells incubated for 24 hrs by Annexin V-FITC/PI staining based flow cytometry (reference value: 0.22 %); assay type: functional
[20] = tested on: MDA-MB-231; assay: Induction of apoptosis in human MDA-MB-231 cells assessed as necrotic cells incubated for 24 hrs by Annexin V-FITC/PI staining based flow cytometry (reference value: 3.6 %); assay type: functional
[21] = tested on: MDA-MB-231; assay: Induction of cell cycle arrest in human MDA-MB-231 cells assessed as accumulation at G0/G1 phase in presence of UV by PI staining based flow cytometry (reference value: 43.25 %); assay type: functional
[22] = tested on: MDA-MB-231; assay: Induction of cell cycle arrest in human MDA-MB-231 cells assessed as accumulation at G0/G1 phase at 0.8 uM by PI staining based flow cytometry (reference value: 64.6 %); assay type: functional
[23] = tested on: MDA-MB-231; assay: Inhibition of mitochondrial membrane potential in human MDA-MB-231 cells assessed as increase in green fluorescence at 0.8 uM incubated for 24 hrs by JC-1 dye based analysis; assay type: functional, cell-based
[24] = tested on: MDA-MB-231; assay: Inhibition of mitochondrial membrane potential in human MDA-MB-231 cells incubated for 24 hrs in presence of UV by JC-1 dye based analysis (reference value: 5.51 %); assay type: functional
[25] = tested on: MCF-10A; assay: Inhibition of mitochondrial membrane potential in human MCF-10A cells assessed as increase in green fluorescence at 0.8 uM incubated for 24 hrs by JC-1 dye based analysis; assay type: toxicity, cell-based
[26] = tested on: MDA-MB-231; assay: Anti-migration activity in human MDA-MB-231 cells at 0.8 uM incubated for 48 hrs by wound healing assay (reference value: 65.2 %); assay type: functional
[27] = tested on: MDA-MB-231; assay: Induction of apoptosis in human MDA-MB-231 cells assessed as viable cells incubated for 24 hrs by Annexin V-FITC/PI staining based flow cytometry (reference value: 92.06 %); assay type: functional
[28] = tested on: MDA-MB-231; assay: Induction of apoptosis in human MDA-MB-231 cells assessed as late apoptotic cells at 0.8 uM incubated for 24 hrs by Annexin V-FITC/PI staining based flow cytometry (reference value: 5.81 %); assay type: functional
[29] = tested on: MDA-MB-231; assay: Induction of apoptosis in human MDA-MB-231 cells assessed as viable cells at 0.8 uM incubated for 24 hrs by Annexin V-FITC/PI staining based flow cytometry (reference value: 86.2 %); assay type: functional; settings: read-out: Activity
[30] = tested on: MDA-MB-231; assay: Induction of apoptosis in human MDA-MB-231 cells assessed as necrotic cells at 0.8 uM incubated for 24 hrs by Annexin V-FITC/PI staining based flow cytometry (reference value: 0.59 %); assay type: functional
[31] = Induction of apoptosis in human MCF-10A cells assessed as viable cells at 0.8 uM incubated for 24 hrs by Annexin V-FITC/PI staining based flow cytometry (reference value: 92.5 %); assay type: toxicity, cell-based; settings: read-out: Activity
[32] = tested on: MDA-MB-231; assay: Anti-migration activity in human MDA-MB-231 cells at 0.8 uM incubated for 24 hrs by wound healing assay (reference value: 45.4 %); assay type: functional
[33] = tested on: MCF-10A; assay: Induction of apoptosis in human MCF-10A cells assessed as late apoptotic cells at 0.8 uM incubated for 24 hrs by Annexin V-FITC/PI staining based flow cytometry (reference value: 3.13 %); assay type: toxicity, cell-based
[34] = tested on: MDA-MB-231; assay: Induction of apoptosis in human MDA-MB-231 cells assessed as early apoptotic cells incubated for 24 hrs by Annexin V-FITC/PI staining based flow cytometry (reference value: 1.94 %); assay type: functional
[35] = tested on: MCF-10A; assay: Induction of apoptosis in human MCF-10A cells assessed as necrotic cells at 0.8 uM incubated for 24 hrs by Annexin V-FITC/PI staining based flow cytometry (reference value: 1.38 %); assay type: toxicity, cell-based
[36] = tested on: MCF-10A; assay: Induction of apoptosis in human MCF-10A cells assessed as early apoptotic cells at 0.8 uM incubated for 24 hrs by Annexin V-FITC/PI staining based flow cytometry (reference value: 2.96 %); assay type: toxicity, cell-based
[37] = tested on: MDA-MB-231; assay: Induction of apoptosis in human MDA-MB-231 cells assessed as early apoptotic cells at 0.8 uM incubated for 24 hrs by Annexin V-FITC/PI staining based flow cytometry (reference value: 7.39 %); assay type: functional
[38] = tested on: MDA-MB-231; assay: Induction of apoptosis in human MDA-MB-231 cells assessed as late apoptotic cells incubated for 24 hrs by Annexin V-FITC/PI staining based flow cytometry (reference value: 2.4 %); assay type: functional
[39] = tested on: MDA-MB-231; assay: Cytotoxicity against human MDA-MB-231 cells incubated for 48 hrs by MTT assay; assay type: functional, cell-based; settings: MDA-MB-231, 48 h
[40] = tested on: MDA-MB-231; assay: Induction of DNA damage in human MDA-MB-231 cells assessed as increase in gamma-H2AX level incubated for 24 hrs by immunofluorescence based analysis; assay type: functional, cell-based
[41] = tested on: MDA-MB-231; assay: Inhibition of mitochondrial membrane potential in human MDA-MB-231 cells assessed as decrease in ATP level incubated for 24 hrs by luminescence based analysis; assay type: functional, cell-based
[42] = tested on: MDA-MB-231; assay: Cytotoxicity against human MDA-MB-231 cells incubated for 24 hrs by MTT assay; assay type: functional, cell-based; settings: MDA-MB-231, 24 h
[43] = tested on: MCF-10A; assay: Induction of apoptosis in human MCF-10A cells assessed as increase in caspase-3 activity incubated for 24 hrs; assay type: toxicity, cell-based
[44] = tested on: MDA-MB-231; assay: Induction of apoptosis in human MDA-MB-231 cells incubated for 24 hrs by TUNEL assay; assay type: functional, cell-based
[45] = tested on: MDA-MB-231; assay: Antitumor activity against human MDA-MB-231 cells assessed as reduction in sphere volume incubated for 6 hrs followed by medium replacement without compound measured after 6 days by microscopic analysis; assay type: functional, cell-based
[46] = tested on: MDA-MB-231; assay: Antitumor activity against human MDA-MB-231 cells xenografted in BALB/c nude mouse assessed as tumor size at 20 mg/kg, iv administered every two days for 21 days (reference value: 1940 mm3); assay type: functional; settings: time 21 day
[47] = tested on: MDA-MB-231; assay: Antitumor activity against human MDA-MB-231 cells xenografted in BALB/c nude mouse at 20 mg/kg, iv administered every two days for 21 days relative to control; assay type: functional; settings: MDA-MB-231, 504 h, time 21 day, read-out: TGI
[48] = tested on: MCF-10A; assay: Inhibition of mitochondrial membrane potential in human MCF-10A cells incubated for 24 hrs by JC-1 dye based analysis; assay type: toxicity, cell-based
[49] = tested on: MDA-MB-231; assay: Inhibition of mitochondrial membrane potential in human MDA-MB-231 cells incubated for 24 hrs by JC-1 dye based analysis; assay type: functional, cell-based
[50] = tested on: MCF-10A; assay: Cytotoxicity against human MCF-10A cells assessed as inhibition of cell viability at 150 uM incubated for 48 hrs by MTT assay; assay type: toxicity, cell-based
[51] = tested on: MDA-MB-231; assay: Inhibition of mitochondrial membrane potential in human MDA-MB-231 cells assessed as increase in intracellular calcium ion level incubated for 24 hrs by Fluo-4 AM dye based analysis; assay type: functional, cell-based
[52] = tested on: MDA-MB-231; assay: Induction of apoptosis in human MDA-MB-231 cells assessed as increase in caspase-3 activity incubated for 24 hrs; assay type: functional, cell-based
[53] = tested on: MDA-MB-231; assay: Antitumor activity against human MDA-MB-231 cells xenografted in BALB/c nude mouse assessed as tumor growth inhibition at 20 mg/kg, iv administered every two days for 21 days; assay type: functional, organism-based; settings: time 21.0 day

OC[C@H]1O[C@@H](Oc2ccc(COc3cccc4cccnc34)cc2)[C@H](O)[C@@H](O)[C@@H]1O
Activity [1]: 0.21%
Activity [2]: 0.88%
Activity [3]: Non-toxic
Activity [4]: 9.17%
Activity [5]: 23%
Activity [6]: 13.3%
Activity [7]: Active
logP [8]: 3.81
solubility [9]: 15.6 µg/mL (≈ 37.8 µM)
solubility [10]: 17.3 µg/mL (≈ 41.9 µM)
selectivity ratio [11]: 2.3
Activity [12]: inactive
pIC50 [13]: 5.92
Activity [14]: 24.5%
logD [15]: 4.14
Activity [16]: 0.11%
IC50 at 48 h [17]: 4.13 µM
viability at 24 h [18]: 76.6%
Activity [19]: 52.3%

Oc1cccc2cccnc12 [OXYQUINOLINE]
Activity [1]: 0.19%
Activity [20]: 2.66%
Activity [21]: 61.23%
Activity [22]: 78.2%
inhibition [23]: Active
inhibition (INH) [24]: 46.91%
Activity [25]: Toxic
Activity [26]: 5.6%
Activity [3]: Non-toxic
Activity [27]: 44.1%
Activity [28]: 15.6%
viability at 0.8 µM [29]: 3.03%
Activity [30]: 0.88%
viability at 24 h, 0.8 µM [31]: 8.98%
Activity [32]: 3.8%
Activity [33]: 24.4%
Activity [34]: 33.76%
Activity [35]: 3.39%
Activity [36]: 63.2%
Activity [37]: 80.5%
Activity [38]: 20.48%

OC[C@H]1O[C@@H](Oc2ccc(C[n+]3cccc4cccc(O)c43)cc2)[C@H](O)[C@@H](O)[C@@H]1O.[Cl-]
Activity [1]: 0.26%
pIC50 [39]: 4.75
Activity [40]: Active
Activity [2]: 0.4%
inhibition [41]: Active
pIC50 [42]: 4.51
Activity [43]: Non-toxic
Activity [44]: Active
Activity [45]: Active
Activity [46]: 970 mm3
inhibition in vivo at 20 mg/kg [47]: 49.6%
inhibition (INH) [48]: Non-toxic
Activity [3]: Non-toxic
Activity [4]: 5.79%
inhibition [49]: Active
Activity [5]: 10.5%
Activity [50]: Non-toxic
Activity [6]: 6.44%
inhibition [51]: Active
logP ([8]; read-out: logP): 2.93
Activity [52]: Dose-dependent-effect
solubility [9]: 34.2 µg/mL
solubility [10]: 35.5 µg/mL
selectivity ratio [11]: 5.7
pIC50 [13]: 4.58
Activity [14]: 53.4%
logD ([15]; read-out: logD): 1.72
Activity [16]: 0.043%
inhibition [53]: Active
viability at 24 h [18]: 87.4%
Activity [19]: 36.1%
